Test results reported in article PMC9154761, “Development of Praziquantel sulphonamide derivatives as antischistosomal drugs” (Journal of Enzyme Inhibition and Medicinal Chemistry, 2022).

Tests used:
[1] = target: T1, hCA IV (Homo sapiens, UniProt P22748); experiment: stopped flow CO2 hydrase assay, hCA IV; type: biochemical; details: mean from three different assays
T1 construct: made in house
Procedure: (§1) An Applied Photophysics stopped-flow instrument was used to assay the CA catalysed CO2 hydration activity. […] The CO2 concentrations ranged from 1.7 to 17 mM for the determination of the kinetic parameters and inhibition constants. […] For each inhibitor, at least six traces of the initial 5–10% of the reaction were used to determine the initial velocity. The uncatalyzed rates were determined in the same manner and subtracted from the total observed rates. Stock solutions of the inhibitor (0.1 mM) were prepared in distilled–deionized water and dilutions up to 0.01 nM were done thereafter with the assay buffer. Inhibitor and enzyme solutions were preincubated together for 15 min at room temperature prior to the assay, to allow for the formation of the E–I complex. The inhibition constants were obtained by non-linear least-squares methods using PRISM 3 and the Cheng-Prusoff equation as reported earlier and represent the mean from at least three different determinations. All CA isoforms were recombinant proteins obtained in house, as reported earlier[14]^,[26–29].

[2] = test system: S. mansoni adult worms; experiment: In vitro antischistosomal activity against adult S. mansoni worms; type: cell-based, Schistosoma mansoni; details: 10 μM, 72 h, viability via microscopy
Procedure: (§2) In vitro studies were carried out in accordance with Swiss national and cantonal regulations on animal welfare under the permission number 2070. The drug sensitivity assays with S. mansoni (adult and newly transformed schistosomules (NTS)) were carried out as described recently. Briefly, to obtain NTS, cercariae were collected from infected Biomphalaria glabrata snails and were mechanically transformed. Adult S. mansoni worms were collected by dissecting the mesenteric veins of infected mice at day 49 postinfection. Approximately 30–40 NTS were incubated with the respective test drug in 250 µL of M199 medium (Gibco, Waltham, MA) supplemented with 5% (v/v) foetal calf serum (FCS) (Bioconcept AG, Switzerland), 1% (v/v) penicillin/streptomycin solution (Sigma–Aldrich, Switzerland) and 1% (v/v) antibacterial/antifungal solution for up to 72 h at 37 °C and 5% CO2. The drug was tested at 10 µM in triplicate and repeated once. Three adult S. mansoni were incubated in a final volume of 2 mL rpmI 1640 supplemented with 5% (v/v) FCS and 1% (v/v) penicillin/streptomycin at 37 °C and 5% CO2 for 72 h at 10 µM. The experiment was conducted in duplicate. Worms were judged via microscopic readout 72 h after incubation; they were scored according to phenotypic reference points such as motility, morphology and granularity (scores from 0 to 3).

[3] = target: T2, hCA IX (Homo sapiens, UniProt Q16790); experiment: stopped flow CO2 hydrase assay, hCA IX; type: biochemical; details: mean from three different assays
T2 construct: made in house
Procedure: as §1

[4] = target: SmCA (Schistosoma mansoni, UniProt A0A3Q0KSG2); experiment: biochemical; details: stopped flow CO2 hydrase assay; mean from three different assays; read-out: Ki SmCA
Procedure: (§3) An Applied Photophysics stopped-flow instrument was used to assay the CA catalysed CO2 hydration activity. […] The uncatalyzed rates were determined in the same manner and subtracted from the total observed rates. Stock solutions of the inhibitor (0.1 mM) were prepared in distilled–deionized water and dilutions up to 0.01 nM were done thereafter with the assay buffer. Inhibitor and enzyme solutions were preincubated together for 15 min at room temperature prior to the assay, to allow for the formation of the E–I complex. The inhibition constants were obtained by non-linear least-squares methods using PRISM 3 and the Cheng-Prusoff equation as reported earlier and represent the mean from at least three different determinations. All CA isoforms were recombinant proteins obtained in house, as reported earlier[14]^,[26–29].

[5] = target: LdCA (Leishmania donovani, UniProt A0A3S5H5R2); experiment: biochemical; details: stopped flow CO2 hydrase assay; mean from three different assays; read-out: Ki LdCA
Procedure: as §3

[6] = target: T3, hCA II (Homo sapiens, UniProt P00918); experiment: stopped flow CO2 hydrase assay, hCA II; type: biochemical; details: mean from three different assays, read-out: Ki hCAII
T3 construct: made in house
Procedure: as §1

[7] = target: T4, hCA I (Homo sapiens, UniProt P00915); experiment: stopped flow CO2 hydrase assay, hCA I; type: biochemical; details: mean from three different assays
T4 construct: made in house
Procedure: as §1

[8] = test system: newly transformed schistosomula (NTS); experiment: In vitro antischistosomal activity against newly transformed schistosomula (NTS); type: cell-based, Schistosoma mansoni; details: 10 μM, after 72 h of exposure, viability via microscopy
Procedure: as §2

T4 sequence (P00915 whole entry): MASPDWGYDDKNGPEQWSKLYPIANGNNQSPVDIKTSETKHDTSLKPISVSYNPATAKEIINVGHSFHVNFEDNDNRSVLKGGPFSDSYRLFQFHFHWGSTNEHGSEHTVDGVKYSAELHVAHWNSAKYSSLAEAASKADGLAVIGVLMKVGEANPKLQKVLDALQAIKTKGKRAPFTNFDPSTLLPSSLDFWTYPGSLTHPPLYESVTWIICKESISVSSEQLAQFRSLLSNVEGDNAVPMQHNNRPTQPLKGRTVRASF
SmCA, sequence (A0A3Q0KSG2 entry or part of it): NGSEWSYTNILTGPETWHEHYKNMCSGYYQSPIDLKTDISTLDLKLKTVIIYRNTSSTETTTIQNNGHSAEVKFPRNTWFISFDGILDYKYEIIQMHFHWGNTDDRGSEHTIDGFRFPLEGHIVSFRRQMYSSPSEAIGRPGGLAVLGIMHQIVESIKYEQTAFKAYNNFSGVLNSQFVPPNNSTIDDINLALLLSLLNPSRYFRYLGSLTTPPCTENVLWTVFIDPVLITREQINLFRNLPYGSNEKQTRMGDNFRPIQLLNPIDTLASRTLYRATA
T1 sequence (P22748 19-312): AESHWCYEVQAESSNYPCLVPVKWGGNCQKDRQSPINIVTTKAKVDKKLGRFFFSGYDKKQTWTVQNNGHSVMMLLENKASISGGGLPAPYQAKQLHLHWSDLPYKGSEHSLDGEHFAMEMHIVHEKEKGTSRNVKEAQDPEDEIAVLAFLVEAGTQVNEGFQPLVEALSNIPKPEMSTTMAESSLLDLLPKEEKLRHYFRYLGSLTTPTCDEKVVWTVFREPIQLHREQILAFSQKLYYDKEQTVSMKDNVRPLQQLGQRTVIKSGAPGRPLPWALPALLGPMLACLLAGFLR
LdCA, sequence (A0A3S5H5R2 entry or part of it): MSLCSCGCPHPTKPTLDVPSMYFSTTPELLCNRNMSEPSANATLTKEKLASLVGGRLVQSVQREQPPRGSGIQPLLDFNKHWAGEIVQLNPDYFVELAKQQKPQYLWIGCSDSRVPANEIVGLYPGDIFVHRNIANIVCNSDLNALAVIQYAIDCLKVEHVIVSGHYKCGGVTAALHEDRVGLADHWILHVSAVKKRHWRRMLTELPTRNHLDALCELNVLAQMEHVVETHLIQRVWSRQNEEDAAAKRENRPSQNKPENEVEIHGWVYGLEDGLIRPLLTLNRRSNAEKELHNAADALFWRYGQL

| SMILES | Ki [1] | activity against adult S. mansoni worms [2] | Ki [3] | Ki [4] | Ki [5] | Ki [6] | Ki [7] | activity against NTS [8] |
| --- | --- | --- | --- | --- | --- | --- | --- | --- |
| NS(=O)(=O)c1ccc(CCC(=O)N2CC(=O)N3CCc4ccccc4C3C2)cc1 (stereo not shown) [Compound 4b, 4–(3-Oxo-3–(4-oxo-1,3,4,6,7,11b-hexahydro-2H-pyrazino[2,1-a]isoquinolin-2-yl)propyl) benzenesulfonamide] | 785 ± 58.3 nM | 20.9% | 139 ± 8 nM | 93.6 ± 7 nM | 417 ± 33.9 nM | 17.5 ± 1 nM | 67.7 ± 5.1 nM |  |
| NS(=O)(=O)c1ccc(NC(=O)N2CC(=O)N3CCc4ccccc4C3C2)cc1 (stereo not shown) [Compound 34a, 4-Oxo-N-(4-sulfamoylphenyl)-1,3,4,6,7,11b-hexahydro-2H-pyrazino[2,1-a]isoquinoline-2-carboxamide] | 4410 ± 371 nM | 30.6% | 24.7 ± 1.44 nM | 59.6 ± 4.3 nM | 253 ± 19.4 nM | 8.4 ± 0.8 nM | 70.4 ± 5.7 nM | over 30% |
| NS(=O)(=O)c1ccc(CCNC(=O)N2CC(=O)N3CCc4ccccc4C3C2)cc1 (stereo not shown) [Compound 34c, 4-Oxo-N-(4-sulfamoylphenethyl)-1,3,4,6,7,11b-hexahydro-2H-pyrazino[2,1-a]isoquinoline-2-carboxamide] | 4180 ± 442 nM |  | 102 ± 5.9 nM | 5.6 ± 0.5 nM | 362 ± 27.3 nM | 5.8 ± 0.3 nM | 20.5 ± 2 nM | over 30% |
